The text below walks through data of ChEMBL document CHEMBL3132769, “Fragment growing to retain or alter the selectivity of anchored kinase hinge-binding fragments” (Medchemcomm, 2014).

The structures appear in SMILES notation.

The target in test [1] is Calcium/calmodulin-dependent protein kinase type II subunit gamma (Homo sapiens) (UniProt Q13555). Kind of test: Inhibition of human CAMK2 gamma catalytic domain expressed in baculovirus assessed as substrate phosphorylation using fluorescence-labelled peptides as substrate at 95 uM after 90 mins by microfluidic peptide phosphorylation assay.
Sequence of Calcium/calmodulin-dependent protein kinase type II subunit gamma (Homo sapiens) (Q13555 whole entry, the tested form may be a part): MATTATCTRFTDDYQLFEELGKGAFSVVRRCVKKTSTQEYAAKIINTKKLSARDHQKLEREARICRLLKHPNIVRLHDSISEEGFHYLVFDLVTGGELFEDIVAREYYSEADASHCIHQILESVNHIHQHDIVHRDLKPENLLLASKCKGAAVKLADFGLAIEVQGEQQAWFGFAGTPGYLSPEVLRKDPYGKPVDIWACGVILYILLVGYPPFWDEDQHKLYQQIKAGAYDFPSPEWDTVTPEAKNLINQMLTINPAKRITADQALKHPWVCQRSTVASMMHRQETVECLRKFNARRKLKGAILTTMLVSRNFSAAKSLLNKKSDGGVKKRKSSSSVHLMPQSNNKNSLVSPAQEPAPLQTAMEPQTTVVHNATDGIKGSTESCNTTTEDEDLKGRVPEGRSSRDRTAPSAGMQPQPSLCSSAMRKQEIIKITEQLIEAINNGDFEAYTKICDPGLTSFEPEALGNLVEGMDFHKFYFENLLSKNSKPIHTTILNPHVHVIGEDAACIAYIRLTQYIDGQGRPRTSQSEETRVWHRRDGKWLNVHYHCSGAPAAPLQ
Test [2] addresses Protein kinase C beta type (Homo sapiens) (UniProt P05771). The test is described as follows: Inhibition of human truncated PKC beta1 expressed in baculovirus assessed as substrate phosphorylation using fluorescence-labelled peptides as substrate at 95 uM after 90 mins by microfluidic peptide phosphorylation assay.
Test [3] has as its target Ribosomal protein S6 kinase alpha-3 (Homo sapiens) (UniProt P51812). Kind of test: Inhibition of human full length RSK2 expressed in baculovirus assessed as substrate phosphorylation using fluorescence-labelled peptides as substrate at […] after 90 mins by microfluidic peptide phosphorylation assay.
Test [4] addresses T1, Serine/threonine-protein kinase 3 (Homo sapiens) (UniProt Q13188).
T1 sequence (whole entry): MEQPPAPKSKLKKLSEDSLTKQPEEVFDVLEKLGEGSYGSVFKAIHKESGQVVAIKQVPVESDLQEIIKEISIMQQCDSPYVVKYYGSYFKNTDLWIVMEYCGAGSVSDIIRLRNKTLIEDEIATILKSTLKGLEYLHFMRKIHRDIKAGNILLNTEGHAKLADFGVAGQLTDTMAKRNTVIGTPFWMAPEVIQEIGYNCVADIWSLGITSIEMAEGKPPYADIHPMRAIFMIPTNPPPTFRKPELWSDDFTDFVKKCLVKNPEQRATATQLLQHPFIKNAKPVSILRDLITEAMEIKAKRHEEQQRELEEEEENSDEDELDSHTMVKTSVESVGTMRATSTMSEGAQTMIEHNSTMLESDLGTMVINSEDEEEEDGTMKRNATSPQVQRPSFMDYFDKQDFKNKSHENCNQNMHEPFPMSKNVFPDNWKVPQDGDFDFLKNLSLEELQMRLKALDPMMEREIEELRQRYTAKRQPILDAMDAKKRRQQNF
Kind of test: Inhibition of human full length MST2 expressed in baculovirus assessed as substrate phosphorylation using fluorescence-labelled peptides as substrate at […] after 90 mins by microfluidic peptide phosphorylation assay.

Test [5] concerns the target T2, cGMP-dependent protein kinase 1 (Homo sapiens) (UniProt Q13976).
T2 sequence (whole entry): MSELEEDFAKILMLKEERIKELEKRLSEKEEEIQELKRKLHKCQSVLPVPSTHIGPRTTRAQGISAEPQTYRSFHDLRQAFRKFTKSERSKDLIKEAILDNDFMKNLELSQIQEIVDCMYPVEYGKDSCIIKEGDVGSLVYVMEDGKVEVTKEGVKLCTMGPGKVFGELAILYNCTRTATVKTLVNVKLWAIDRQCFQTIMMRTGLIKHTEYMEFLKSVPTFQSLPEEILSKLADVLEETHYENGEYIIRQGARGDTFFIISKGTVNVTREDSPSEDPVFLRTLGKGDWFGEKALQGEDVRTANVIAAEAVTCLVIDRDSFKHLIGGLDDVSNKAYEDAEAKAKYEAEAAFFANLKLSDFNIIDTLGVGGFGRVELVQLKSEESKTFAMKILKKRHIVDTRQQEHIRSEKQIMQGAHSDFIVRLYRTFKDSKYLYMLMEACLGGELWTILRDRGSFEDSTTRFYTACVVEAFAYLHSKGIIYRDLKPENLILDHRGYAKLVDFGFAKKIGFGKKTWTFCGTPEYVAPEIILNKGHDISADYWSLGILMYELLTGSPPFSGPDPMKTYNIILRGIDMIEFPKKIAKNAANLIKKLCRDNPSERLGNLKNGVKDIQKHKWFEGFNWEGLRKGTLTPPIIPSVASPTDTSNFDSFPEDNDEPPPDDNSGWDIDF
The test is described as follows: Inhibition of human full length PKG-1beta expressed in baculovirus assessed as substrate phosphorylation using fluorescence-labelled peptides as substrate at 1000 uM after 90 mins by microfluidic peptide phosphorylation assay.

Test [6] has as its target T3, Serine/threonine-protein kinase BRSK1 (Homo sapiens) (UniProt Q8TDC3).
T3 sequence (whole entry): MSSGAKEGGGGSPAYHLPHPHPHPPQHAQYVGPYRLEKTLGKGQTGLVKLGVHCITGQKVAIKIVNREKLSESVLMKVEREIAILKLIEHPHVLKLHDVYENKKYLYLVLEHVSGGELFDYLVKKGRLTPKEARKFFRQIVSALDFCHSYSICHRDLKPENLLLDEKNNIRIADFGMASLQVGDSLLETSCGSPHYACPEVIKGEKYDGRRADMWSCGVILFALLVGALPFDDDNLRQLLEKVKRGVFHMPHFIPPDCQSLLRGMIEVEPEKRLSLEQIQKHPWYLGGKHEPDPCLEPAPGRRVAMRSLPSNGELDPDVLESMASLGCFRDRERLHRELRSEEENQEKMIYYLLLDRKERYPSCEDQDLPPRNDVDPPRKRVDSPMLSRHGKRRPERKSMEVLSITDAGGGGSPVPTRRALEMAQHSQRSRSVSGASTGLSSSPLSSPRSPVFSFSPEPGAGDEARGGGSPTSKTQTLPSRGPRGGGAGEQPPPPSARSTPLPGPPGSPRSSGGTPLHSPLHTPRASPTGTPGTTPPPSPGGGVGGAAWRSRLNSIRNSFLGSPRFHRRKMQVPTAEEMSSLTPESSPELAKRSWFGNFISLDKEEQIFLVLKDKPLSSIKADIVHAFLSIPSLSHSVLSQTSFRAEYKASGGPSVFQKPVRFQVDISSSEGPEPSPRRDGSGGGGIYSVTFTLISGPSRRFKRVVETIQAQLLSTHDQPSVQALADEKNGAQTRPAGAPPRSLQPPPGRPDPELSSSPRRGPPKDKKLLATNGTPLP
Kind of test: Inhibition of human full length BRSK1 expressed in baculovirus assessed as substrate phosphorylation using fluorescence-labelled peptides as substrate at 2 uM after 90 mins by microfluidic peptide phosphorylation assay.

Sequence of Protein kinase C beta type (Homo sapiens) (P05771 2-671 limits assumed): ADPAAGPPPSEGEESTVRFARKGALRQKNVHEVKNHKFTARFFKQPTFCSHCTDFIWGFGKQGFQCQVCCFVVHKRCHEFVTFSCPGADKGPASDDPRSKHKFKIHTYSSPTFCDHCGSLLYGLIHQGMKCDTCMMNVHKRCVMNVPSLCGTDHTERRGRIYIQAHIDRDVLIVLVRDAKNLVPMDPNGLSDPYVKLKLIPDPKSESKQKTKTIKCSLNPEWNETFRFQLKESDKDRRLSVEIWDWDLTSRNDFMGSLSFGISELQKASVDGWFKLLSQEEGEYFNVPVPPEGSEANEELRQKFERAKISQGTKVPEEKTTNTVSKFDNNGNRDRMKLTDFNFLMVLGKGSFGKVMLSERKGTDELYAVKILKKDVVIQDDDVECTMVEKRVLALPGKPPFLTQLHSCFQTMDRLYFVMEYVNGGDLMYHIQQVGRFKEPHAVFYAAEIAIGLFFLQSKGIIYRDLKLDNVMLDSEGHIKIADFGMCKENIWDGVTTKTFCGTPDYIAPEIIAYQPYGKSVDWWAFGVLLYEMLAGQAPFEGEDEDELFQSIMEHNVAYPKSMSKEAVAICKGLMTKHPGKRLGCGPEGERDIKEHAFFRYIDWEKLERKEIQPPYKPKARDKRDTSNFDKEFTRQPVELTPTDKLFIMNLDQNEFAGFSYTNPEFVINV
Sequence of Ribosomal protein S6 kinase alpha-3 (Homo sapiens) (P51812 whole entry): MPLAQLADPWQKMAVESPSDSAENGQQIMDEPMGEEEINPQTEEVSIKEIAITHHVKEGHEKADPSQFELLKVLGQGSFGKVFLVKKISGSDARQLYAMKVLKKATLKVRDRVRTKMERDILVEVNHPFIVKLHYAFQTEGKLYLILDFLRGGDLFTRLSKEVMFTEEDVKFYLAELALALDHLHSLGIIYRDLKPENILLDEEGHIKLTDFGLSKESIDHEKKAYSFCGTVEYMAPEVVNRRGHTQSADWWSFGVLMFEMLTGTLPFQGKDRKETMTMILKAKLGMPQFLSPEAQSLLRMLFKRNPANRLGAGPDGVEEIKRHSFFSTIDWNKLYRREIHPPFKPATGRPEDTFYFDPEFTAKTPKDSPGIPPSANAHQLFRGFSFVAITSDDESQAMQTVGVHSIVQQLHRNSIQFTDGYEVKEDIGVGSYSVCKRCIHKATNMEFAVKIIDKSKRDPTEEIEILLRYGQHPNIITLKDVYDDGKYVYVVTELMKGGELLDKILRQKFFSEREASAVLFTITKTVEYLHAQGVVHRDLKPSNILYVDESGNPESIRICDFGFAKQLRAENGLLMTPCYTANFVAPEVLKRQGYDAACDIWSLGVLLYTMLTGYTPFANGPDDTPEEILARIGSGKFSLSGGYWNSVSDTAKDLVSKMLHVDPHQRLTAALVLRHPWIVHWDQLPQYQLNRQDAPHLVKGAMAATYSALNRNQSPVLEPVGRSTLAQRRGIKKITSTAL

Turning to `NCCc1ccc(-c2ncnc3[nH]cnc23)cc1`, the inhibition in test [1] amounted to 30%; in test [2] it was 77%. On to `COC(=O)c1cnc(Nc2cnc(C#N)cn2)cc1NCC1CCNCC1`, for which the inhibition worked out at 42% in test [3] and 0.5% in test [4]. As to `c1cnc2[nH]ccc2c1`, the inhibition in test [5] amounted to 87%. In the case of `NC1CCN(c2ncnc3[nH]ccc23)CC1`, in test [6], the inhibition amounted to 14.5%.
